From patent US11891634B2, “PDE5A destabilizing domains” (The Board of Trustees of the Leland Stanford Junior …, priority 2017, dated 2024)

What was measured:
Format in all cases: cell-based, human
[1] = system: HCT 116 cells transduced with the PDE5A DD derived GFP constructs; assay: Response to Vardenafil, GFP expression by FACS in HCT116; details: for MFI / Stabilization ratio with Vardenafil: 48 hours, HCT116; for Basal: Table 15, MFI with DMSO / parental HCT116, Vardenafil experiment
Description: (§1) Mutations were created in PDE5A (535-860) catalytic domain using site directed mutagenesis and the mutants were cloned as AcGFP fusion into pELNS vector carrying mCherry marker and packaged in lentiviral vectors. HCT116 cells were transduced with the constructs and stable integrants were selected by cell sorting using mCherry marker. Cells were treated with vehicle (dimethyl sulfoxide, DMSO) or 10 μM Vardenafil (VDF) for 48 hours. Following the treatment, cells were analyzed for GFP expression using FACS. Basal expression was calculated as the ratio of GFP signal in the absence of ligand for a given cell line to auto fluorescence of parental HCT-116 cells. Stabilization ratio was calculated as the ratio of the GFP signal observed in the presence of stabilizing ligand to the signal from the same cell line in the absence of ligand.
HCT 116 cells transduced with the PDE5A DD derived GFP constructs were also tested with increasing doses of Vardenafil. The HCT116 cells were incubated for 48 hours with Vardenafil starting at a dose of 0.002 μM to 30 μM. The GFP intensity of the Vardenafil treated samples was compared to the parental untransduced HCT116 and DMSO treated cells for each construct. The mean fluorescence intensity was calculated for each sample and used to calculate the stabilization ratios as well as the basal expression for each construct. The GFP expression was measured using flow cytometry and the mean fluorescence intensity (MFI) was calculated for each sample. The stabilization ratios are shown in Table 13 and Table 14 and the basal expression is show in Table 15.

[2] = system: HCT 116 cells transduced with the PDE5A DD derived GFP constructs; assay: Response to Tadalafil, GFP expression by FACS in HCT116; details: for MFI / Stabilization ratio with Tadalafil: 48 hours, HCT116; for Basal expression: Table 21, MFI with DMSO / parental HCT116, Tadalafil experiment
Description: as §1, with “PDE5AN (#3) was” for “Mutations were created in PDE5A (535-860) catalytic domain using site directed mutagenesis and the mutants were”, “construct” for “constructs”, “varying doses of Tadalafil (TDF)” for “10 μM Vardenafil (VDF)”, “hrs with doses ranging from 0.01 μM to 100 μM.” for “hours.”
HCT 116 cells transduced with the PDE5A DD derived GFP constructs were also tested with increasing doses of Tadalafil. The HCT116 cells were incubated for 48 hours with Tadalafil starting at dose 0.01 μM to 100 μM. The GFP intensity of the Tadalafil treated samples was compared to the parental untransduced HCT116 and DMSO treated cells for each construct. The mean fluorescence intensity was calculated for each sample and used to calculate the stabilization ratios as well as the basal expression for each construct. The stabilization ratios are shown in Table 19 and Table 20 and the basal expression is show in Table 21.

[3] = system: HCT116 cells transduced with the constructs; assay: Response to Sildenafil, GFP expression by flow cytometry in HCT116; details: for MFI / Stabilization ratio with Sildenafil: 48 hours, HCT116; for Basal expression: Table 26, MFI with DMSO / parental HCT116, Sildenafil experiment
Description: Similar experiments were performed in HCT116 cells using sildenafil. The above-mentioned DDs were cloned as AcGFP fusion into pELNS vector carrying mCherry marker and packaged in lentiviral vectors. HCT116 cells were transduced with the constructs and stable integrants were selected by cell sorting using mCherry marker. Cells were treated with sildenafil at the following μM concentrations: 0.01, 0.02, 0.05, 0.14, 0.41, 1.23, 3.7, 11.11, 33.33, and 100 for a duration of 48 hours. The fluorescence was analyzed by flow cytometry and the mean fluorescence intensity was calculated for all samples. […] The stabilization ratios are shown in Table 24 and Table 25 and the basal expression is show in Table 26.

## PDE5AC (#13): AcGFP fused to C-terminal DD 535-860 of PDE5A (Q589R, Y676D, L738H), SEQ ID NO. 24
[1]; DMSO (no Vardenafil)
  MFI: 14659
[1]; Table 10, GFP signal without ligand / auto fluorescence of parental HCT-116
  Basal (DMSO/Parental): 11.3
[1]
  Basal: 7.50
[1]; Vardenafil 0.002 μM vs DMSO
  Stabilization ratio with Vardenafil: 1.3
[1]; Vardenafil 0.002 μM
  MFI: 18393
[1]; Vardenafil 0.005 μM
  MFI: 27661
[1]; Vardenafil 0.014 μM vs DMSO
  Stabilization ratio with Vardenafil: 4.1
[1]; Vardenafil 0.014 μM
  MFI: 59673
[1]; Vardenafil 0.041 μM vs DMSO
  Stabilization ratio with Vardenafil: 5.3
[1]; Vardenafil 0.041 μM
  MFI: 78117
[1]; Vardenafil 0.123 μM vs DMSO
  Stabilization ratio with Vardenafil: 6.0
[1]; Vardenafil 0.123 μM
  MFI: 88571
[1]; Vardenafil 0.370 μM vs DMSO
  Stabilization ratio with Vardenafil: 6.8
[1]; Vardenafil 0.370 μM
  MFI: 99160
[1]; Vardenafil 1.111 μM vs DMSO
  Stabilization ratio with Vardenafil: 6.8
[1]; Vardenafil 1.111 μM
  MFI: 99377
[1]; Vardenafil 3.333 μM vs DMSO
  Stabilization ratio with Vardenafil: 7.2
[1]; Vardenafil 3.333 μM
  MFI: 105500
[1]; Vardenafil 10 μM vs DMSO
  Stabilization ratio with Vardenafil: 6.7
[1]; Vardenafil 10 μM
  MFI: 97493
[1]; Vardenafil 30 μM vs DMSO
  Stabilization ratio with Vardenafil: 7.2
[1]; Vardenafil 30 μM
  MFI: 105335
[2]; DMSO (no Tadalafil)
  MFI: 14416
[2]
  Basal expression: 11.26
[2]; Tadalafil 0.01 μM vs DMSO
  Stabilization ratio with Tadalafil: 1.0
[2]; Tadalafil 0.01 μM
  MFI: 14388
[2]; Tadalafil 0.02 μM vs DMSO
  Stabilization ratio with Tadalafil: 1.0
[2]; Tadalafil 0.02 μM
  MFI: 14908
[2]; Tadalafil 0.05 μM vs DMSO
  Stabilization ratio with Tadalafil: 1.1
[2]; Tadalafil 0.05 μM
  MFI: 16488
[2]; Tadalafil 0.14 μM
  MFI: 21292
[2]; Tadalafil 0.41 μM vs DMSO
  Stabilization ratio with Tadalafil: 2.3
[2]; Tadalafil 0.41 μM
  MFI: 33396
[2]; Tadalafil 1.23 μM vs DMSO
  Stabilization ratio with Tadalafil: 4.1
[2]; Tadalafil 1.23 μM
  MFI: 58867
[2]; Tadalafil 3.7 μM vs DMSO
  Stabilization ratio with Tadalafil: 5.7
[2]; Tadalafil 3.7 μM
  MFI: 81755
[2]; Tadalafil 11.11 μM vs DMSO
  Stabilization ratio with Tadalafil: 6.4
[2]; Tadalafil 11.11 μM
  MFI: 92484
[2]; Tadalafil 33.33 μM vs DMSO
  Stabilization ratio with Tadalafil: 6.7
[2]; Tadalafil 33.33 μM
  MFI: 96959
[2]; Tadalafil 100 μM vs DMSO
  Stabilization ratio with Tadalafil: 7.3
[2]; Tadalafil 100 μM
  MFI: 105048
[3]; DMSO (no Sildenafil)
  MFI: 15122
[3]; Sildenafil 0.01 μM vs DMSO
  Stabilization ratio with Sildenafil: 1.0
[3]; Sildenafil 0.01 μM
  MFI: 14787
[3]; Sildenafil 0.02 μM vs DMSO
  Stabilization ratio with Sildenafil: 1.1
[3]; Sildenafil 0.02 μM
  MFI: 17318
[3]; Sildenafil 0.05 μM
  MFI: 26905
[3]; Sildenafil 0.14 μM vs DMSO
  Stabilization ratio with Sildenafil: 3.2
[3]; Sildenafil 0.14 μM
  MFI: 48611
[3]; Sildenafil 0.41 μM vs DMSO
  Stabilization ratio with Sildenafil: 4.6
[3]; Sildenafil 0.41 μM
  MFI: 69042
[3]; Sildenafil 1.23 μM vs DMSO
  Stabilization ratio with Sildenafil: 5.6
[3]; Sildenafil 1.23 μM
  MFI: 84772
[3]; Sildenafil 3.70 μM vs DMSO
  Stabilization ratio with Sildenafil: 5.5
[3]; Sildenafil 3.70 μM
  MFI: 82519
[3]; Sildenafil 11.11 μM vs DMSO
  Stabilization ratio with Sildenafil: 6.1
[3]; Sildenafil 11.11 μM
  MFI: 92732
[3]; Sildenafil 33.33 μM vs DMSO
  Stabilization ratio with Sildenafil: 6.2
[3]; Sildenafil 33.33 μM
  MFI: 93336
[3]; Sildenafil 100.00 μM vs DMSO
  Stabilization ratio with Sildenafil: 5.0
[3]; Sildenafil 100.00 μM
  MFI: 76090
[3]
  Basal expression: 11.7

## PDE5AC (#25): AcGFP fused to C-terminal DD 535-860 of PDE5A (Q541R, F559L, Q589R, H678R, I824T), SEQ ID NO. 35
[1]; DMSO (no Vardenafil)
  MFI: 9555
[1]
  Basal: 4.89
[1]; Vardenafil 0.002 μM vs DMSO
  Stabilization ratio with Vardenafil: 1.0
[1]; Vardenafil 0.002 μM
  MFI: 9737
[1]; Vardenafil 0.005 μM vs DMSO
  Stabilization ratio with Vardenafil: 1.0
[1]; Vardenafil 0.005 μM
  MFI: 9694
[1]; Vardenafil 0.014 μM vs DMSO
  Stabilization ratio with Vardenafil: 1.0
[1]; Vardenafil 0.014 μM
  MFI: 9767
[1]; Vardenafil 0.041 μM vs DMSO
  Stabilization ratio with Vardenafil: 1.1
[1]; Vardenafil 0.041 μM
  MFI: 10468
[1]; Vardenafil 0.123 μM vs DMSO
  Stabilization ratio with Vardenafil: 1.4
[1]; Vardenafil 0.123 μM
  MFI: 13348
[1]; Vardenafil 0.370 μM vs DMSO
  Stabilization ratio with Vardenafil: 2.1
[1]; Vardenafil 0.370 μM
  MFI: 20522
[1]; Vardenafil 1.111 μM vs DMSO
  Stabilization ratio with Vardenafil: 4.1
[1]; Vardenafil 1.111 μM
  MFI: 38958
[1]; Vardenafil 3.333 μM vs DMSO
  Stabilization ratio with Vardenafil: 6.9
[1]; Vardenafil 3.333 μM
  MFI: 66337
[1]; Vardenafil 10 μM vs DMSO
  Stabilization ratio with Vardenafil: 9.9
[1]; Vardenafil 10 μM
  MFI: 94642
[1]; Vardenafil 30 μM vs DMSO
  Stabilization ratio with Vardenafil: 12.7
[1]; Vardenafil 30 μM
  MFI: 120927
[2]; DMSO (no Tadalafil)
  MFI: 9297
[2]
  Basal expression: 7.26
[2]; Tadalafil 0.01 μM vs DMSO
  Stabilization ratio with Tadalafil: 1.0
[2]; Tadalafil 0.01 μM
  MFI: 9233
[2]; Tadalafil 0.02 μM vs DMSO
  Stabilization ratio with Tadalafil: 1.0
[2]; Tadalafil 0.02 μM
  MFI: 8860
[2]; Tadalafil 0.05 μM vs DMSO
  Stabilization ratio with Tadalafil: 1.0
[2]; Tadalafil 0.05 μM
  MFI: 9404
[2]; Tadalafil 0.14 μM vs DMSO
  Stabilization ratio with Tadalafil: 1.0
[2]; Tadalafil 0.14 μM
  MFI: 9478
[2]; Tadalafil 0.41 μM vs DMSO
  Stabilization ratio with Tadalafil: 1.1
[2]; Tadalafil 0.41 μM
  MFI: 9858
[2]; Tadalafil 1.23 μM vs DMSO
  Stabilization ratio with Tadalafil: 1.3
[2]; Tadalafil 1.23 μM
  MFI: 12432
[2]; Tadalafil 3.7 μM vs DMSO
  Stabilization ratio with Tadalafil: 2.1
[2]; Tadalafil 3.7 μM
  MFI: 19294
[2]; Tadalafil 11.11 μM vs DMSO
  Stabilization ratio with Tadalafil: 3.4
[2]; Tadalafil 11.11 μM
  MFI: 31763
[2]; Tadalafil 33.33 μM vs DMSO
  Stabilization ratio with Tadalafil: 5.8
[2]; Tadalafil 33.33 μM
  MFI: 54151
[2]; Tadalafil 100 μM vs DMSO
  Stabilization ratio with Tadalafil: 7.6
[2]; Tadalafil 100 μM vs DMSO, listed as PDE5AN (#25)
  Stabilization ratio with Tadalafil: highest stabilization ratio
[2]; Tadalafil 100 μM
  MFI: 70389
[3]; DMSO (no Sildenafil)
  MFI: 10217
[3]; Sildenafil 0.01 μM vs DMSO
  Stabilization ratio with Sildenafil: 1.0
[3]; Sildenafil 0.01 μM
  MFI: 10169
[3]; Sildenafil 0.02 μM vs DMSO
  Stabilization ratio with Sildenafil: 0.9
[3]; Sildenafil 0.02 μM
  MFI: 9354
[3]; Sildenafil 0.05 μM vs DMSO
  Stabilization ratio with Sildenafil: 1.0
[3]; Sildenafil 0.05 μM
  MFI: 10120
[3]; Sildenafil 0.14 μM vs DMSO
  Stabilization ratio with Sildenafil: 1.0
[3]; Sildenafil 0.14 μM
  MFI: 10128
[3]; Sildenafil 0.41 μM vs DMSO
  Stabilization ratio with Sildenafil: 1.0
[3]; Sildenafil 0.41 μM
  MFI: 10207
[3]; Sildenafil 1.23 μM vs DMSO
  Stabilization ratio with Sildenafil: 1.2
[3]; Sildenafil 1.23 μM
  MFI: 12328
[3]; Sildenafil 3.70 μM vs DMSO
  Stabilization ratio with Sildenafil: 1.7
[3]; Sildenafil 3.70 μM
  MFI: 17466
[3]; Sildenafil 11.11 μM vs DMSO
  Stabilization ratio with Sildenafil: 2.6
[3]; Sildenafil 11.11 μM
  MFI: 26947
[3]; Sildenafil 33.33 μM vs DMSO
  Stabilization ratio with Sildenafil: 4.6
[3]; Sildenafil 33.33 μM
  MFI: 46897
[3]; Sildenafil 100.00 μM vs DMSO
  Stabilization ratio with Sildenafil: 5.1
[3]; Sildenafil 100.00 μM
  MFI: 51774
[3]
  Basal expression: 7.9
